Laboratory results from patent publication US10350271B2, “Lipidated peptides for lowering blood glucose” (USTAV ORGANICKE CHEMIE A BIOCHEMIE AKADEMIE VED CR, V.V.I., priority 2014, dated 2019).
Numbered stars: 1 amine (or outer) side, 2 acyl side, 3 side chain; on linkers, the order of the positions; unused ones are H or OH. Square brackets hold non-standard residues; d marks the D form. Side chains are listed from the residue outwards. Ends that are not written are not given here. Peptide text beside a SMILES is read from it. * marks the point of attachment. TTDA(Palmitoyl) = CCCCCCCCCCCCCCCC(=O)NCCCOCCOCCOCCCN*; Phe(4-NO2) = N[C@@H](Cc1ccc([N+](=O)[O-])cc1)C(=O)O; γGlu = O=C(O)[C@H](CCC(=O)[*:2])N[*:1]; Palmitoyl = CCCCCCCCCCCCCCCC(=O)*; Suc = O=C(CCC(=O)[*:2])[*:1]; Nle = CCCC[C@H](N)C(=O)O

Key:
[1] = biological target: T1, human PrRP receptor GPR10 (Homo sapiens, UniProt P49683); experiment: Competitive binding in CHO cells transfected with human GPR10 (human 125I-PrRP31); settings: for % of PrRP31, GPR10 human receptor transfected in CHO cells: affinity relative to PrRP31; for Ki: CHO cells, human 125I-PrRP31, read-out: Ki, GPR10 human receptor transfected in CHO cells
T1 construct: host or cells: CHO cells
T1 sequence (P49683 1-370): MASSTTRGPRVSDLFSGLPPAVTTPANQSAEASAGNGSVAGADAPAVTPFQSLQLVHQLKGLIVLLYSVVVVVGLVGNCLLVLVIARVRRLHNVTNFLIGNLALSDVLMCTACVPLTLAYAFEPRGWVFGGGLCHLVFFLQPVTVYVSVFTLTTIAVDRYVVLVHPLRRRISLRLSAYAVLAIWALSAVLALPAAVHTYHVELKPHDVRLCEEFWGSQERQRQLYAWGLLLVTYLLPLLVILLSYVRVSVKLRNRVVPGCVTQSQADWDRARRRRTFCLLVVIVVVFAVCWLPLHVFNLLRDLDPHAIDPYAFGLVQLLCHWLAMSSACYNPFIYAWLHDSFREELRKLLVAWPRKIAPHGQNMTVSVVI
Method in brief: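 GPR10-transfected CHO cells (40-80 thousand/well) incubated 60 min at room temperature with 5×10^-11 mol·l^-1 human 125I-PrRP31 and unlabeled analog at 10^-11 to 10^-4 mol·l^-1 in Tris binding buffer pH 7.4. Cells solubilized in 0.1 mol/l NaOH, γ-counted; one-site nonlinear regression fit.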

C57BL/6 mice = experiment: Food intake in fasted mice after SC injection; type: in vivo; settings: for Food intake in mice % of saline-treated group: 5 mg/kg SC, 45 min after injection
Method in brief: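 Overnight-fasted animals (food removed 17 h before dosing, water available) in individual cages got saline, PrRP or lipidated PrRP analogs SC at 1-10 mg/kg.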

rat PrRP receptor = biological target: T2, rat PrRP receptor (Rattus norvegicus, UniProt Q64121); experiment: Competitive binding in RC-4B/C rat pituitary cells (125I-rat PrRP31); settings: for % of PrRP31, RC-4B/C rat pituitary cells: affinity relative to PrRP31; for Ki: displacement of 125I-rat PrRP31, read-out: Ki, RC-4B/C rat pituitary cells ^25I-rat PrRP31
T2 construct: host or cells: RC-4B/C rat pituitary cell line
T2 sequence (Q64121 1-370): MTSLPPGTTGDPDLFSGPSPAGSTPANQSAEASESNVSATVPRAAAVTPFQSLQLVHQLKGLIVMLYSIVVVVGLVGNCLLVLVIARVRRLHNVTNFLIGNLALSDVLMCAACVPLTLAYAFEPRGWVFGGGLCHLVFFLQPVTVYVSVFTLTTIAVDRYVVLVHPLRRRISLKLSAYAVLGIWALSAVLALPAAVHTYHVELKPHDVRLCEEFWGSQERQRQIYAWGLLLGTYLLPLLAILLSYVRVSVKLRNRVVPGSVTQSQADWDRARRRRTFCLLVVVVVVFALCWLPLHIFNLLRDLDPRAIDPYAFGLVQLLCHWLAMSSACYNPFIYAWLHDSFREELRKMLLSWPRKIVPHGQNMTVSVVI
Method in brief: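 Intact rat pituitary RC-4B/C cells incubated 60 min at room temperature with […] rat 125I-PrRP31 and unlabeled analog (10^−11 to 10^−4 mol·l^−1) in HEPES pH 7.4 buffer. Cell-bound radioactivity γ-counted after NaOH lysis; one-site competition fit.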

Compound | % of PrRP31, GPR10 human receptor transfected in CHO cells [1] | Effect on food intake in mice (C57BL/6 mice; SC) | Binding affinity (rat PrRP receptor; RC-4B/C cells, statements referring to Table 2) | % of PrRP31, RC-4B/C rat pituitary cells (rat PrRP receptor) | Ki [1] | Food intake in mice % of saline-treated group (C57BL/6 mice) | Ki (rat PrRP receptor; RC-4B/C cells)
CC[C@H](C)[C@H](NC(=O)[C@H](CCCNC(=N)N)NC(=O)[C@@H]1CCCN1C(=O)[C@@H](NC(=O)CNC(=O)[C@@H](CCCNC(=N)N)NC(=O)[C@H](N)Cc1ccccc1)C(C)C)C(=O)NCC(=O)N[C@@H](CCCNC(=N)N)C(=O)NCC(=O)N[C@H](C(=O)N[C@@H](Cc1ccc(O)cc1)C(=O)N[C@@H](Cc1c[nH]c2ccccc12)C(=O)N[C@@H](C)C(=O)N1CCC[C@H]1C(=O)N[C@@H](CC(N)=O)C(=O)N[C@H](C(=O)N[C@@H](CC(=O)O)C(=O)N1CCC[C@H]1C(=O)N[C@H](C(N)=O)[C@@H](C)O)[C@@H](C)CC)[C@@H](C)O [Analog 25] (H-[dF][dR]GVPRIGRGTYWAPNIDPT-NH2) | 0.06% | no effect | very low binding affinity | 0.09% |  |  | 
CCCCCCCCCCCCCCCC(=O)N[C@@H](CCC(=O)NCCCC[C@H](NC(=O)[C@@H](NC(=O)[C@H](CCC(=O)O)NC(=O)[C@H](CCSC)NC(=O)[C@H](CO)NC(=O)[C@H](Cc1c[nH]cn1)NC(=O)[C@H](CCC(=O)O)NC(=O)[C@H](Cc1c[nH]cn1)NC(=O)[C@@H](NC(=O)[C@H](CCC(=O)O)NC(=O)[C@@H](N)CO)[C@@H](C)O)[C@@H](C)CC)C(=O)N[C@H](C(=O)N1CCC[C@H]1C(=O)N[C@@H](CC(=O)O)C(=O)N[C@H](C(=O)N[C@@H](CC(N)=O)C(=O)N1CCC[C@H]1C(=O)N[C@@H](C)C(=O)N[C@@H](Cc1c[nH]c2ccccc12)C(=O)N[C@@H](Cc1ccc(O)cc1)C(=O)N[C@@H](C)C(=O)N[C@@H](CO)C(=O)N[C@@H](CCCNC(=N)N)C(=O)NCC(=O)N[C@H](C(=O)N[C@@H](CCCNC(=N)N)C(=O)N1CCC[C@H]1C(=O)N[C@H](C(=O)NCC(=O)N[C@@H](CCCNC(=N)N)C(=O)N[C@@H](Cc1ccccc1)C(N)=O)C(C)C)[C@@H](C)CC)[C@@H](C)CC)[C@@H](C)O)C(=O)O [Analog 56] (H-SETHEHSMEIK([γGlu-Palmitoyl])TPDINPAWYASRGIRPVGRF-NH2) | 57% |  |  | 57% | 5.66 ± 0.39 nM | 10% | 4.23 ± 2.11 nM
CCCC[C@H](NC(=O)[C@H](CO)NC(=O)[C@H](Cc1c[nH]cn1)NC(=O)[C@H](CCC(N)=O)NC(=O)[C@H](Cc1c[nH]cn1)NC(=O)[C@H](C)NC(=O)[C@H](CCCNC(=N)N)NC(=O)[C@@H](N)CO)C(=O)N[C@@H](CCC(=O)O)C(=O)N[C@H](C(=O)N[C@@H](CCCNC(=N)N)C(=O)N[C@H](C(=O)N1CCC[C@H]1C(=O)N[C@@H](CC(=O)O)C(=O)N[C@H](C(=O)N[C@@H](CC(N)=O)C(=O)N1CCC[C@H]1C(=O)N[C@@H](C)C(=O)N[C@@H](Cc1c[nH]c2ccccc12)C(=O)N[C@@H](Cc1ccc(O)cc1)C(=O)N[C@H](C(=O)NCC(=O)N[C@@H](CCCNC(=N)N)C(=O)NCC(=O)N[C@H](C(=O)N[C@@H](CCCNC(=N)N)C(=O)N1CCC[C@H]1C(=O)N[C@H](C(=O)NCC(=O)N[C@@H](CCCNC(=N)N)C(=O)N[C@@H](Cc1ccccc1)C(N)=O)C(C)C)[C@@H](C)CC)[C@@H](C)O)[C@@H](C)CC)[C@@H](C)O)[C@@H](C)O [Analog 3] (H-SRAHQHS[Nle]ETRTPDINPAWYTGRGIRPVGRF-NH2) | 203% |  |  | 385% |  | 100% | 
CCCCCCCCCCCCCCCC(=O)N[C@@H](CO)C(=O)N[C@@H](CCCNC(=N)N)C(=O)N[C@@H](C)C(=O)N[C@@H](Cc1c[nH]cn1)C(=O)N[C@@H](CCC(N)=O)C(=O)N[C@@H](Cc1c[nH]cn1)C(=O)N[C@@H](CO)C(=O)N[C@@H](CCCC)C(=O)N[C@@H](CCC(=O)O)C(=O)N[C@H](C(=O)N[C@@H](CCCNC(=N)N)C(=O)N[C@H](C(=O)N1CCC[C@H]1C(=O)N[C@@H](CC(=O)O)C(=O)N[C@H](C(=O)N[C@@H](CC(N)=O)C(=O)N1CCC[C@H]1C(=O)N[C@@H](C)C(=O)N[C@@H](Cc1c[nH]c2ccccc12)C(=O)N[C@@H](Cc1ccc(O)cc1)C(=O)N[C@H](C(=O)NCC(=O)N[C@@H](CCCNC(=N)N)C(=O)NCC(=O)N[C@H](C(=O)N[C@@H](CCCNC(=N)N)C(=O)N1CCC[C@H]1C(=O)N[C@H](C(=O)NCC(=O)N[C@@H](CCCNC(=N)N)C(=O)N[C@@H](Cc1ccc([N+](=O)[O-])cc1)C(N)=O)C(C)C)[C@@H](C)CC)[C@@H](C)O)[C@@H](C)CC)[C@@H](C)O)[C@@H](C)O [Analog 18] (Palmitoyl-SRAHQHS[Nle]ETRTPDINPAWYTGRGIRPVGR[Phe(4-NO2)]-NH2) | 505% |  |  | 850% | 0.77 ± 0.28 nM | 0.7% | 0.58 ± 0.1 nM
CCCCCCCCCCCCCC(=O)N[C@@H](CO)C(=O)N[C@@H](CCCNC(=N)N)C(=O)N[C@H](C(=O)N[C@@H](Cc1c[nH]cn1)C(=O)N[C@@H](CCCNC(=N)N)C(=O)N[C@@H](Cc1c[nH]cn1)C(=O)N[C@@H](CO)C(=O)N[C@@H](CCSC)C(=O)N[C@@H](CCC(=O)O)C(=O)N[C@H](C(=O)N[C@@H](CCCNC(=N)N)C(=O)N[C@H](C(=O)N1CCC[C@H]1C(=O)N[C@@H](CC(=O)O)C(=O)N[C@H](C(=O)N[C@@H](CC(N)=O)C(=O)N1CCC[C@H]1C(=O)N[C@@H](C)C(=O)N[C@@H](Cc1c[nH]c2ccccc12)C(=O)N[C@@H](Cc1ccc(O)cc1)C(=O)N[C@@H](C)C(=O)N[C@@H](CO)C(=O)N[C@@H](CCCNC(=N)N)C(=O)NCC(=O)N[C@H](C(=O)N[C@@H](CCCNC(=N)N)C(=O)N1CCC[C@H]1C(=O)N[C@H](C(=O)NCC(=O)N[C@@H](CCCNC(=N)N)C(=O)N[C@@H](Cc1ccccc1)C(N)=O)C(C)C)[C@@H](C)CC)[C@@H](C)CC)[C@@H](C)O)[C@@H](C)CC)[C@@H](C)O [Analog 42] | 83% |  |  | 1027% |  | 10% | 0.48 ± 0.18 nM
CCCCCCCCCCCCCCCC(=O)NCCCOCCOCCOCCCNC(=O)CCC(=O)NCCCC[C@H](NC(=O)[C@@H](NC(=O)[C@H](CCC(=O)O)NC(=O)[C@H](CCSC)NC(=O)[C@H](CO)NC(=O)[C@H](Cc1c[nH]cn1)NC(=O)[C@H](CCCNC(=N)N)NC(=O)[C@H](Cc1c[nH]cn1)NC(=O)[C@@H](NC(=O)[C@H](CCCNC(=N)N)NC(=O)[C@H](CO)NC(=O)CCC(=O)NCCCOCCOCCOCCCNC(=O)CCCCCCCCCCCCCCC)[C@@H](C)O)[C@@H](C)CC)C(=O)N[C@H](C(=O)N1CCC[C@H]1C(=O)N[C@@H](CC(=O)O)C(=O)N[C@H](C(=O)N[C@@H](CC(N)=O)C(=O)N1CCC[C@H]1C(=O)N[C@@H](C)C(=O)N[C@@H](Cc1c[nH]c2ccccc12)C(=O)N[C@@H](Cc1ccc(O)cc1)C(=O)N[C@@H](C)C(=O)N[C@@H](CO)C(=O)N[C@@H](CCCNC(=N)N)C(=O)NCC(=O)N[C@H](C(=O)N[C@@H](CCCNC(=N)N)C(=O)N1CCC[C@H]1C(=O)N[C@H](C(=O)NCC(=O)N[C@@H](CCCNC(=N)N)C(=O)N[C@@H](Cc1ccccc1)C(N)=O)C(C)C)[C@@H](C)CC)[C@@H](C)CC)[C@@H](C)O [Analog 59] ({TTDA(Palmitoyl)-Suc}-SRTHRHSMEIK([Suc-TTDA(Palmitoyl)])TPDINPAWYASRGIRPVGRF-NH2) | 12% |  |  | 85% | 32.4 ± 3.57 nM | 23% | 
TPDINPAWYTGRGIRPVGRF-NH2 [Rat PrRP20, reference compound] | 70% |  |  | 143% | 5.56 ± 0.7 nM | 100% | 
